In brackets after ≈: the same amount, converted by molar mass.
System: platelet aggregation (platelet-rich plasmas (PRP) of guinea pigs)
Experiment: Activity of inhibiting platelet aggregation in vitro, guinea pig PRP, sodium arachidonate as aggregating agent (Table 1)
Assay type: cell-based, Hartley-strain male guinea pigs
Conditions: Cavia porcellus, sodium arachidonate 0.03 mM final, 37° C., final concentration, read-out: IC50 (minimum concentration of drug which showed a percent inhibition of more than 50%)
Protocol: Some 1-substituted-3-acylpyrrole derivatives and other drugs were tested for platelet aggregation inhibiting activities in vitro using platelet-rich plasmas (PRP) of man and guinea pigs. The results are shown as minimum concentration of drugs which inhibit more than 50% of platelet aggregation induced by several aggregating agents.
In experiments with PRP of guinea pigs, sodium arachidonate (final concentration 0.03 mM) was used as an aggregating agent. In experiments with human PRP, sodium arachidonate (final concentration 0.1 mM), collagan suspension (final concentration 10 μg/ml), epinephrine solution (final concentration 20 μg/ml; for secondary aggregation), an epinephrine solution (final concentration 2 μg/ml; for primary aggregation) and ADP (final concentration 5 μM) were used as aggregating agents.
In an experiment with guinea pig PRP, citrated blood (containing 0.38% sodium citrate as a final concentration) was withdrawn by cardiac puncture from Hartley-strain male guinea pigs having a body weight of 350 to 600 g. The citrated blood was centrifuged at 1,000 rpm for 10 minutes at room temperature, and the supernatant platelet suspension (PRP) was separated.
The PRP was stored at room temperature, and used as soon as possible. Those which had been stored for more than 4 hours after preparation were not used.
For each test, a drug is dissolved in dimethylsulfoxide to a concentration of 10 mg/ml, and diluted with physiological saline to form 1 ml each of solutions having a concentration of 2500 μg/ml, 1000 μg/ml, 750 μg/ml, 500 μg/ml, 250 μg/ml and 100 μg/ml. A compound having a free carboxylic acid as a residue such as indomethacine and Ibprofen was dissolved in 0.1 M NaHCO3 to form a sodium salt solution having a concentration of 10 mg/ml. Then, the solution was diluted with physiological saline in the same way as above to form a test drug solution.
Arachidonic acid (99% pure, a product of Sigma Co., Ltd.) was dissolved in 0.1 M NaHCO3, and a 3.3 mM solution of sodium arachidonate was prepared. The solution was diluted with physiological saline to a concentration of 1 mM and used in the experiments. The 3.3 mM solution was stored in a refrigerator as a stock solution, and the 1 mM solution was newly prepared from the stock solution every time it was used.
Physiological saline (50 μl) and 50 μl of the aggregating agent solution were added to 400 μl of PRP which had been pre-warmed and stirred at 37° C. in a quvett set in a holder of an aggregometer. Platelet aggregation was thus initiated, and the change of light transmittance through a stirred platelet suspension was recorded for 3 minutes by a recorder joined to the aggregometer. An increase in transmittance after 3 minutes (T0) was used as a parameter of the rate of platelet aggregation in control experiments.
To 400 μl of PRP in a quvett was added 50 μl of a test drug solution. The mixture was pre-incubated and stirred for 2 minutes at 37° C. Then 50 μl of the aggregating agent was added to drug containing PRP and again aggregation responses were recorded as increases in light transmittance after 3 minutes (T1) in the same way as in (1) above. Percent inhibition was calculated from the formula [formula]
For the above in vitro test for the inhibition of platelet aggregation, reference may be had to H. M. Davis, J. Phyllis, K. Paul and W. Terry: Thromb. Res. 11, 217-226 (1977) and R. E. Anderson and J. G. Foulks: Thromb. Haemos. 36, 343-359 (1976).

Cc1cc(C(=O)c2ccccc2)c(C)n1CC(C)O (stereo not shown) [Compound 102, 2-(3-benzoyl-2,5-dimethylpyrrol-1-yl)-1-methylethanol]
IC50: 5 µg/mL (≈ 19.4 µM)

Reference: patent US4233309A, “Novel 1-substituted-3-acylpyrrole derivatives, platelet aggregation inhibitors containing them, as active ingredients, and processes for production of said derivatives” (Teijin Limited, priority 1977, dated 1980)
